Read-outs that look alike come from different tables or passages of the source.
Experiments:
Format in all cases: cell-based
[1] = biological target: T1, EML4-ALK-BaF3 (Homo sapiens, UniProt Q9UM73); assay: Growth inhibition of EML4-ALK transformed BaF3 cells (MTS); details: for IC50: EML4-ALK-BaF3 cells, 48 hours, MTS
T1 construct: expressed in transfected cells; host or cells: Ba/F3 cells; the other entry of the earlier key: EML4 (Q9HC35, Echinoderm microtubule-associated protein-like 4)
Procedure: (§1) If compounds can inhibit the activity of ALK kinase or the activity of ALK signaling pathway, they can inhibit the growth of ALK transformed Ba/F3 cells. […] The broad-spectrum toxicity of compounds can be evaluated by determining the effect of the compounds on the growth of wild type BaF3 cells.
(§2) 1) Medium: DMEM (Dulbecco's modified eagle medium) or RPMI1640 (containing 10% fetal bovine serum, 100 μg/mL ampicillin, 100 μg/mL streptomycin).)
(§3) Reagents: MTS solution (2 mg/mL MTS (3-(4,5-dimethylthiazol-2-yl)-5-(3-carboxymethoxyphenyl)-2-(4-sulfophenyl)-2H-tetrazolium, inner salt); 100 μg/mL PES ([…])).
(§4) 3) Test of compound: Transformed Ba/F3 cells (EML4-ALK-BaF3, EML4-ALK(L1196M)-BaF3, NPM-ALK-BaF3) (2×10^4/well) were distributed into 96-well plates, with volume of cell sap of 90 μL, 10 μL of compounds in gradient concentration (the highest concentration 10 was μM, followed by 1/3 step by step dilution, a total of 8 concentrations were set, the system contained 0.1% DMSO (dimethyl sulfoxide)). The cell plates mixed with compounds were cultured in a cell incubator (37° C.; 5% CO2) for 48 hours, and the added 20 μL of MTS reaction solution, mixed and incubated in cell incubator (37° C.; 5% CO2) for 1-4 hours. The OD value at a wavelength of 490 nm was measured using eliasa (VARIOSKAN FLASH, Thermo). Three parallels were set up for each group, with a final concentration of 0.1% DMSO as negative control, and with medium without cells and compounds as blank control.
(§5) 4) Calculation of IC50 value: the semi inhibitory concentration of the compound acting on the cells was calculated using GradPad Prism 5 software according to the cell inhibitory rate measured.

[2] = biological target: T2, EML4-ALK (L1196M)-BaF3 (Homo sapiens, UniProt Q9UM73, L1196M); assay: Growth inhibition of EML4-ALK (L1196M) transformed BaF3 cells (MTS); details: 48 hours
T2 construct: expressed in transfected cells; host or cells: Ba/F3 cells; the other entry of the earlier key: EML4 (Q9HC35, Echinoderm microtubule-associated protein-like 4)
Procedure: as §1, §2, §3, §4, §5

[3] = biological target: T3, NPM-ALK-BaF3 (Homo sapiens, UniProt Q9UM73); assay: Growth inhibition of NPM-ALK transformed BaF3 cells (MTS); details: 48 hours
T3 construct: expressed in transfected cells; host or cells: Ba/F3 cells; the other entry of the earlier key: NPM1 (P06748, Nucleophosmin)
Procedure: (§6) The activity of compounds against ALK kinase was evaluated by inhibiting the growth of cellular ALK kinase EML4-ALK-BaF3, EML4-ALK (L1196M)-BaF3, NPM-ALK-BaF3, and wild type BaF3 (Proc. Natl. Acad. Sci. USA., 2006, 103, 3153-8.) The growth of cellular ALK kinase EML4-ALK-BaF3, EML4-ALK(L1196M)-BaF3, and NPM-ALK-BaF3 depends on their kinase activity. If compounds can inhibit the activity of ALK kinase or the activity of ALK signaling pathway, they can inhibit the growth of ALK transformed Ba/F3 cells. […] The broad-spectrum toxicity of compounds can be evaluated by determining the effect of the compounds on the growth of wild type BaF3 cells.
as §2, §3
as §4, with “control. The inhibition rate of cell growth was calculated by the following formula: Cell inhibition rate %=1−(OD experimental group−OD blank group)/(OD negative group−OD blank group)*100%” for “control.”
as §5

[4] = test system: wild type BaF3; assay: Growth inhibition of wild type BaF3 cells (broad-spectrum toxicity); details: Mus musculus, BaF3, 48 h, MTS
Procedure: as §6, §2, §3
as §4, with “control. The inhibition rate of cell growth was calculated by the following formula: Cell inhibition rate %=1−(OD experimental group−OD blank group)/(OD negative group−OD blank group)*100%” for “control.”
as §5

[5] = Table 11, read-out: EML4-ALK (L1196M) (IC50 nM)
[6] = Table 12, read-out: L1196M (IC50 nM)

Row | Structure (SMILES) | IC50 ([1]; Table 11) [nM] | IC50 [2, 5] [nM] | IC50 ([3]; Table 11) [nM] | IC50 ([4]; Table 11) [nM] | targeting selectivity ([1]; ratio of IC50 between wild-type BaF3 and ALK transformed BaF3 cells) | IC50 ([1]; Table 12) [nM] | IC50 [2, 6] [nM] | IC50 ([3]; Table 12) [nM] | IC50 ([4]; Table 12) [nM]
1 | COC(=O)c1ccccc1Nc1nc(Nc2ccc(N3CCC(O)CC3)cc2OC(C)C)nc2cc[nH]c12 [IG-9] | > 10000 | > 10000 | > 10000 | > 10000 |  |  |  |  | 
2 | CCOc1cc(N2CCC(O)CC2)ccc1Nc1nc(Nc2ccccc2C(=O)OC)c2[nH]ccc2n1 [IG-10] | 9800 | > 10000 | 19600 | > 10000 |  |  |  |  | 
3 | COC(=O)c1ccccc1Nc1nc(Nc2ccc(C(=O)N3CCC(N4CCN(C)CC4)CC3)cc2OC)nc2cc[nH]c12 [IG-12] | 6500 | 4130 | 4080 | ~7740 |  |  |  |  | 
4 | COC(=O)c1ccccc1Nc1nc(Nc2ccc(N3CCN(C)CC3)cn2)nc2cc[nH]c12 [IG-13] | > 10000 | > 10000 | > 10000 | > 10000 |  |  |  |  | 
5 | COC(=O)c1ccccc1Nc1nc(Nc2cc(C)c(C3CCN(C)CC3)cc2OC)nc2cc[nH]c12 [IG-14] | ~1260 | 884 | 1390 | ~2550 |  |  |  |  | 
6 | COC(=O)c1ccccc1Nc1nc(Nc2ccc(N3CCOCC3)cc2OC)nc2cc[nH]c12 [IG-16] | 1370 | 1390 | 1740 | 2350 |  |  |  |  | 
7 | COC(=O)c1ccccc1Nc1nc(Nc2ccc(C(=O)N3CCOCC3)cc2OC)nc2cc[nH]c12 [IG-17] | 7610 | ~9460 | 7670 | 9390 |  |  |  |  | 
8 | COC(=O)c1ccccc1Nc1nc(Nc2ccc(N3CCC(O)CC3)nc2)nc2cc[nH]c12 [IG-18] | 4680 | 4370 | 8760 | > 10000 |  |  |  |  | 
9 | CCC(C)OC(=O)c1ccccc1Nc1nc(Nc2ccc(N3CCN(C)CC3)cc2OC)nc2cc[nH]c12 (stereo not drawn) [IH-1] | 1120 | 916 | 1560 | 2070 |  |  |  |  | 
10 | CCC(C)OC(=O)c1ccccc1Nc1nc(Nc2ccc(N3CCC(O)CC3)cc2)nc2cc[nH]c12 (stereo not drawn) [IH-2] | > 10000 | 40400 | > 10000 | > 10000 |  |  |  |  | 
11 | CCC(C)OC(=O)c1ccccc1Nc1nc(Nc2ccc(N3CCC(N4CCN(C)CC4)CC3)cc2OC)nc2cc[nH]c12 (stereo not drawn) [IH-3] | ~446 | 502 | ~859 | ~949 |  |  |  |  | 
12 | COC(=O)c1cccc(Nc2nc(Nc3ccc(N4CCN(C)CC4)cc3OC)nc3cc[nH]c23)c1 [II-1] | 1490 | ~2630 | 1640 | ~2710 |  |  |  |  | 
13 | COC(=O)c1cccc(Nc2nc(Nc3ccc(N4CCC(N5CCN(C)CC5)CC4)cc3OC)nc3cc[nH]c23)c1 [II-2] | 1810 | ~2560 | ~2600 | ~3030 |  |  |  |  | 
14 | COC(=O)c1cccc(Nc2nc(Nc3ccc(N4CCC(O)CC4)cc3)nc3cc[nH]c23)c1 [II-3] | 7470 | 6160 | 4910 | 9610 |  |  |  |  | 
15 | COC(=O)c1cccc(Nc2nc(Nc3ccc(N4CCOCC4)cc3)nc3cc[nH]c23)c1 [II-5] | 238 | 488 | 1290 | 1060 | good targeting selectivity |  |  |  | 
16 | COC(=O)c1cccc(Nc2nc(Nc3ccc(N4CCC(N5CCCC5)CC4)cc3OC)nc3cc[nH]c23)c1 [II-6] | 4960 | ~7400 | 6720 | ~8220 |  |  |  |  | 
17 | COc1cc(N2CCN(C)CC2)ccc1Nc1nc(Nc2ccccc2SC)c2c(ccn2C)n1 [IIA-1] |  |  |  |  |  | ~909 | ~2560 | 512 | 1550
18 | COc1cc(N2CCC(N3CCN(C)CC3)CC2)ccc1Nc1nc(Nc2ccccc2SC)c2c(ccn2C)n1 [IIA-2] |  |  |  |  |  | ~1110 | 1620 | 1400 | ~883
19 | CSc1ccccc1Nc1nc(Nc2ccc(N3CCC(O)CC3)cc2)nc2ccn(C)c12 [IIA-3] |  |  |  |  |  | 321 | 161 | 456 | 376
20 | CSc1ccccc1Nc1nc(Nc2ccc(S(N)(=O)=O)cc2)nc2ccn(C)c12 [IIA-4] |  |  |  |  |  | 1300 | 1320 | 2700 | 2570
21 | CCOc1cc(C(=O)N2CCC(N3CCN(C)CC3)CC2)ccc1Nc1nc(Nc2ccccc2SC)c2c(ccn2C)n1 [IIA-5] |  |  |  |  |  | ~877 | ~883 | 519 | ~336
22 | CSc1ccccc1Nc1nc(Nc2ccc(N3CCN(C)CC3)cc2)nc2ccn(C)c12 [IIA-6] |  |  |  |  |  | 644 | 978 | 536 | 1370
23 | COc1cc(N2CCN(C)CC2)ccc1Nc1nc(Nc2ccccc2SC(C)C)c2c(ccn2C)n1 [IIB-1] |  |  |  |  |  | 1720 | ~2800 | ~2510 | 1930
24 | COc1cc(N2CCC(N3CCN(C)CC3)CC2)ccc1Nc1nc(Nc2ccccc2SC(C)C)c2c(ccn2C)n1 [IIB-2] |  |  |  |  |  | ~949 | ~853 | ~940 | 606
25 | CC(C)Sc1ccccc1Nc1nc(Nc2ccc(N3CCC(O)CC3)cc2)nc2ccn(C)c12 [IIB-3] |  |  |  |  |  | 489 | 917 | 653 | 1040
26 | CC(C)Sc1ccccc1Nc1nc(Nc2ccc(S(N)(=O)=O)cc2)nc2ccn(C)c12 [IIB-4] |  |  |  |  |  | 3020 | 4210 | 4570 | 4880

Source: patent publication US10508118B2, “Pyrimidopyrrole compounds, method for preparing the same, pharmaceutical compositions comprising the same and uses thereof” (Xiamen University, priority 2015, dated 2019)
